Strand notation (5' to 3'): a small letter for the sugar, then the base; units joined by * are phosphorothioate-linked, units joined directly phosphodiester-linked; [ ] holds rarer units or linkages, { } end groups; capitals alone tell only the bases. e = 2'-O-(2-methoxyethyl) (MOE); [5mC] = 5-methylcytosine; d = 2'-deoxy (DNA)
Each substance was assayed on human Factor 7 mRNA (assay: Antisense inhibition of human Factor 7 mRNA in HepB3 cells, 50 nM antisense oligonucleotide, lipofectin). Details: Table 13 (microwalk), 50 nM, lipofectin, approximately 24 hours.
Assay type: cell-based
Summary of the method: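 Seeding density was 4,000 cells per well. Following roughly 24 hours of oligonucleotide treatment, RNA was extracted and Factor 7 message quantified using the RTS 2927 primer probe set. Levels were corrected for RIBOGREEN® total RNA and expressed against untreated controls.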
In the case of “422226 (antisense e[5mC]*eA*dT*dG*dG*dT*dG*dA*dT*dG*d[5mC]*dT*dT*d[5mC]*dT*eG*eA*eA*eT*eT) [compound 422226]”, the “% Inhibition” value is reported as 41%.
With “422227 (antisense eG*e[5mC]*dA*dT*dG*dG*dT*dG*dA*dT*dG*d[5mC]*dT*dT*d[5mC]*eT*eG*eA*eA*eT) [compound 422227]” the “% Inhibition” value was 67%.
For “422230 (antisense e[5mC]*eA*dT*dG*d[5mC]*dA*dT*dG*dG*dT*dG*dA*dT*dG*d[5mC]*eT*eT*e[5mC]*eT*eG) [compound 422230]”, the “% Inhibition” value was 65%.

Same assay, conditions: gapmers targeted to nucleobases 4868 to 4899 of SEQ ID NO: 1, Table 8
With “422213 (antisense eT*e[5mC]*eT*dG*d[5mC]*dA*dG*dG*dA*dG*d[5mC]*dG*dG*d[5mC]*d[5mC]*dT*dA*eA*eA*eT) [compound 422213]” the “% Inhibition of human Factor 7 mRNA levels” value was 67%.
In the case of “422214 (antisense eT*eT*e[5mC]*dT*dG*d[5mC]*dA*dG*dG*dA*dG*d[5mC]*dG*dG*d[5mC]*d[5mC]*dT*eA*eA*eA) [compound 422214]”, the “% Inhibition of human Factor 7 mRNA levels” value is reported as 60%.
In the case of “422216 (antisense eA*eG*eT*dT*d[5mC]*dT*dG*d[5mC]*dA*dG*dG*dA*dG*d[5mC]*dG*dG*d[5mC]*e[5mC]*eT*eA) [compound 422216]”, the “% Inhibition of human Factor 7 mRNA levels” value is reported as 68%.
“422218 (antisense e[5mC]*eG*eA*dG*dT*dT*d[5mC]*dT*dG*d[5mC]*dA*dG*dG*dA*dG*d[5mC]*dG*eG*e[5mC]*e[5mC]) [compound 422218]” was tested, and the “% Inhibition of human Factor 7 mRNA levels” value was 70%.
For “422219 (antisense e[5mC]*e[5mC]*eG*dA*dG*dT*dT*d[5mC]*dT*dG*d[5mC]*dA*dG*dG*dA*dG*d[5mC]*eG*eG*e[5mC]) [compound 422219]”, the “% Inhibition of human Factor 7 mRNA levels” value was 65%.
In the case of “422220 (antisense e[5mC]*e[5mC]*e[5mC]*dG*dA*dG*dT*dT*d[5mC]*dT*dG*d[5mC]*dA*dG*dG*dA*dG*e[5mC]*eG*eG) [compound 422220]”, the “% Inhibition of human Factor 7 mRNA levels” value is reported as 59%.
“422221 (antisense eG*e[5mC]*e[5mC]*d[5mC]*dG*dA*dG*dT*dT*d[5mC]*dT*dG*d[5mC]*dA*dG*dG*dA*eG*e[5mC]*eG) [compound 422221]” was tested, and the “% Inhibition of human Factor 7 mRNA levels” value was 59%.
With “422222 (antisense eA*eG*e[5mC]*d[5mC]*d[5mC]*dG*dA*dG*dT*dT*d[5mC]*dT*dG*d[5mC]*dA*dG*dG*eA*eG*e[5mC]) [compound 422222]” the “% Inhibition of human Factor 7 mRNA levels” value was 55%.
For “422223 (antisense eG*eA*eG*d[5mC]*d[5mC]*d[5mC]*dG*dA*dG*dT*dT*d[5mC]*dT*dG*d[5mC]*dA*dG*eG*eA*eG) [compound 422223]”, the “% Inhibition of human Factor 7 mRNA levels” value was 48%.
In the case of “422224 (antisense eG*eG*eA*dG*d[5mC]*d[5mC]*d[5mC]*dG*dA*dG*dT*dT*d[5mC]*dT*dG*d[5mC]*dA*eG*eG*eA) [compound 422224]”, the “% Inhibition of human Factor 7 mRNA levels” value is reported as 62%.
For “422225 (antisense eA*eG*eG*dA*dG*d[5mC]*d[5mC]*d[5mC]*dG*dA*dG*dT*dT*d[5mC]*dT*dG*d[5mC]*eA*eG*eG) [compound 422225]”, the “% Inhibition of human Factor 7 mRNA levels” value was 56%.

Same assay, conditions: oligonucleotides targeted to nucleobases 11830 to 11869 of SEQ ID NO: 1 (Table 9)
With “422231 (antisense eT*e[5mC]*dA*dG*dG*dG*d[5mC]*dT*dG*dG*dT*dT*dT*dT*dG*eG*eA*eG*eG*eA) [compound 422231]” the “% Inhibition (human Factor 7 mRNA levels)” value was 22%.
“422232 (antisense eG*eT*d[5mC]*dA*dG*dG*dG*d[5mC]*dT*dG*dG*dT*dT*dT*dT*eG*eG*eA*eG*eG) [compound 422232]” was tested, and the “% Inhibition (human Factor 7 mRNA levels)” value was 41%.
“422233 (antisense eG*eG*dT*d[5mC]*dA*dG*dG*dG*d[5mC]*dT*dG*dG*dT*dT*dT*eT*eG*eG*eA*eG) [compound 422233]” was tested, and the “% Inhibition (human Factor 7 mRNA levels)” value was 46%.
For “422234 (antisense eT*eG*dG*dT*d[5mC]*dA*dG*dG*dG*d[5mC]*dT*dG*dG*dT*dT*eT*eT*eG*eG*eA) [compound 422234]”, the “% Inhibition (human Factor 7 mRNA levels)” value was 62%.
In the case of “422235 (antisense eA*eT*dG*dG*dT*d[5mC]*dA*dG*dG*dG*d[5mC]*dT*dG*dG*dT*eT*eT*eT*eG*eG) [compound 422235]”, the “% Inhibition (human Factor 7 mRNA levels)” value is reported as 50%.
“422236 (antisense eA*eA*dT*dG*dG*dT*d[5mC]*dA*dG*dG*dG*d[5mC]*dT*dG*dG*eT*eT*eT*eT*eG) [compound 422236]” was tested, and the “% Inhibition (human Factor 7 mRNA levels)” value was 44%.
With “422237 (antisense e[5mC]*eA*dA*dT*dG*dG*dT*d[5mC]*dA*dG*dG*dG*d[5mC]*dT*dG*eG*eT*eT*eT*eT) [compound 422237]” the “% Inhibition (human Factor 7 mRNA levels)” value was 50%.
For “422238 (antisense eA*e[5mC]*dA*dA*dT*dG*dG*dT*d[5mC]*dA*dG*dG*dG*d[5mC]*dT*eG*eG*eT*eT*eT) [compound 422238]”, the “% Inhibition (human Factor 7 mRNA levels)” value was 64%.
With “422239 (antisense eG*eA*d[5mC]*dA*dA*dT*dG*dG*dT*d[5mC]*dA*dG*dG*dG*d[5mC]*eT*eG*eG*eT*eT) [compound 422239]” the “% Inhibition (human Factor 7 mRNA levels)” value was 67%.
With “422240 (antisense eA*eG*dA*d[5mC]*dA*dA*dT*dG*dG*dT*d[5mC]*dA*dG*dG*dG*e[5mC]*eT*eG*eG*eT) [compound 422240]” the “% Inhibition (human Factor 7 mRNA levels)” value was 66%.
“422241 (antisense eG*eA*dG*dA*d[5mC]*dA*dA*dT*dG*dG*dT*d[5mC]*dA*dG*dG*eG*e[5mC]*eT*eG*eG) [compound 422241]” was tested, and the “% Inhibition (human Factor 7 mRNA levels)” value was 61%.
With “422242 (antisense eG*eG*dA*dG*dA*d[5mC]*dA*dA*dT*dG*dG*dT*d[5mC]*dA*dG*eG*eG*e[5mC]*eT*eG) [compound 422242]” the “% Inhibition (human Factor 7 mRNA levels)” value was 64%.
“422243 (antisense eA*eG*dG*dA*dG*dA*d[5mC]*dA*dA*dT*dG*dG*dT*d[5mC]*dA*eG*eG*eG*e[5mC]*eT) [compound 422243]” was tested, and the “% Inhibition (human Factor 7 mRNA levels)” value was 62%.
In the case of “422244 (antisense eG*eA*dG*dG*dA*dG*dA*d[5mC]*dA*dA*dT*dG*dG*dT*d[5mC]*eA*eG*eG*eG*e[5mC]) [compound 422244]”, the “% Inhibition (human Factor 7 mRNA levels)” value is reported as 55%.
“422245 (antisense eT*eG*dA*dG*dG*dA*dG*dA*d[5mC]*dA*dA*dT*dG*dG*dT*e[5mC]*eA*eG*eG*eG) [compound 422245]” was tested, and the “% Inhibition (human Factor 7 mRNA levels)” value was 24%.
With “422246 (antisense e[5mC]*eT*dG*dA*dG*dG*dA*dG*dA*d[5mC]*dA*dA*dT*dG*dG*eT*e[5mC]*eA*eG*eG) [compound 422246]” the “% Inhibition (human Factor 7 mRNA levels)” value was 46%.
With “422247 (antisense eG*e[5mC]*dT*dG*dA*dG*dG*dA*dG*dA*d[5mC]*dA*dA*dT*dG*eG*eT*e[5mC]*eA*eG) [compound 422247]” the “% Inhibition (human Factor 7 mRNA levels)” value was 36%.
“422248 (antisense eG*eG*d[5mC]*dT*dG*dA*dG*dG*dA*dG*dA*d[5mC]*dA*dA*dT*eG*eG*eT*e[5mC]*eA) [compound 422248]” was tested, and the “% Inhibition (human Factor 7 mRNA levels)” value was 60%.
With “422249 (antisense eT*eG*dG*d[5mC]*dT*dG*dA*dG*dG*dA*dG*dA*d[5mC]*dA*dA*eT*eG*eG*eT*e[5mC]) [compound 422249]” the “% Inhibition (human Factor 7 mRNA levels)” value was 52%.
For “422250 (antisense e[5mC]*eT*dG*dG*d[5mC]*dT*dG*dA*dG*dG*dA*dG*dA*d[5mC]*dA*eA*eT*eG*eG*eT) [compound 422250]”, the “% Inhibition (human Factor 7 mRNA levels)” value was 54%.

Same assay, conditions: oligonucleotides targeted to nucleobases 14707 to 14732 of SEQ ID NO: 1 (Table 11)
“422204 (antisense eG*e[5mC]*eA*dG*d[5mC]*d[5mC]*dT*dG*dA*dG*dG*d[5mC]*d[5mC]*dA*dG*d[5mC]*dA*eG*eA*eT) [compound 422204]” was tested, and the “% Inhibition (human Factor 7 mRNA levels)” value was 72%.
“422205 (antisense eA*eG*e[5mC]*dA*dG*d[5mC]*d[5mC]*dT*dG*dA*dG*dG*d[5mC]*d[5mC]*dA*dG*d[5mC]*eA*eG*eA) [compound 422205]” was tested, and the “% Inhibition (human Factor 7 mRNA levels)” value was 63%.
With “422206 (antisense e[5mC]*eA*eG*d[5mC]*dA*dG*d[5mC]*d[5mC]*dT*dG*dA*dG*dG*d[5mC]*d[5mC]*dA*dG*e[5mC]*eA*eG) [compound 422206]” the “% Inhibition (human Factor 7 mRNA levels)” value was 65%.

Same assay, conditions: oligonucleotides targeted to nucleobases 15098 to 15122 of SEQ ID NO: 1 (Table 12)
“422207 (antisense e[5mC]*eA*e[5mC]*dA*d[5mC]*dA*dT*dG*dG*dA*dG*dT*d[5mC]*dA*dG*d[5mC]*dA*eT*e[5mC]*eG) [compound 422207]” was tested, and the “% Inhibition (human Factor 7 mRNA levels)” value was 41%.
In the case of “422208 (antisense eG*e[5mC]*eA*d[5mC]*dA*d[5mC]*dA*dT*dG*dG*dA*dG*dT*d[5mC]*dA*dG*d[5mC]*eA*eT*e[5mC]) [compound 422208]”, the “% Inhibition (human Factor 7 mRNA levels)” value is reported as 56%.
With “422209 (antisense eA*eG*e[5mC]*dA*d[5mC]*dA*d[5mC]*dA*dT*dG*dG*dA*dG*dT*d[5mC]*dA*dG*e[5mC]*eA*eT) [compound 422209]” the “% Inhibition (human Factor 7 mRNA levels)” value was 47%.
With “422210 (antisense e[5mC]*eA*eG*d[5mC]*dA*d[5mC]*dA*d[5mC]*dA*dT*dG*dG*dA*dG*dT*d[5mC]*dA*eG*e[5mC]*eA) [compound 422210]” the “% Inhibition (human Factor 7 mRNA levels)” value was 25%.
For “422211 (antisense eA*e[5mC]*eA*dG*d[5mC]*dA*d[5mC]*dA*d[5mC]*dA*dT*dG*dG*dA*dG*dT*d[5mC]*eA*eG*e[5mC]) [compound 422211]”, the “% Inhibition (human Factor 7 mRNA levels)” value was 42%.
In the case of “422212 (antisense eG*eA*e[5mC]*dA*dG*d[5mC]*dA*d[5mC]*dA*d[5mC]*dA*dT*dG*dG*dA*dG*dT*e[5mC]*eA*eG) [compound 422212]”, the “% Inhibition (human Factor 7 mRNA levels)” value is reported as 30%.

Source: patent US9029337B2, “Modulation of factor 7 expression” (Isis Pharmaceuticals, Inc., priority 2007, dated 2015)
